The source made the active and inactive calls.
Key:
Genome polyprotein = Genome polyprotein (dengue virus type 2, UniProt P29990); experiment: flavivirus cap methylation enzyme inhibition – biochemical, confirmation dose response, primary screen (AID 588689); assay type: functional
[1] = target: ATP-binding cassette sub-family B member 6 (Homo sapiens, UniProt Q9NP58); experiment: ABCB6 transporter inhibitors, porphyrin accumulation, dose response, flow cytometry, K562-ABCB6 cells, cherry pick 02 (AID 624487); assay type: functional; conditions: read-out: EC50_MICROM
Chain of ATP-binding cassette sub-family B member 6 (Q9NP58 whole entry): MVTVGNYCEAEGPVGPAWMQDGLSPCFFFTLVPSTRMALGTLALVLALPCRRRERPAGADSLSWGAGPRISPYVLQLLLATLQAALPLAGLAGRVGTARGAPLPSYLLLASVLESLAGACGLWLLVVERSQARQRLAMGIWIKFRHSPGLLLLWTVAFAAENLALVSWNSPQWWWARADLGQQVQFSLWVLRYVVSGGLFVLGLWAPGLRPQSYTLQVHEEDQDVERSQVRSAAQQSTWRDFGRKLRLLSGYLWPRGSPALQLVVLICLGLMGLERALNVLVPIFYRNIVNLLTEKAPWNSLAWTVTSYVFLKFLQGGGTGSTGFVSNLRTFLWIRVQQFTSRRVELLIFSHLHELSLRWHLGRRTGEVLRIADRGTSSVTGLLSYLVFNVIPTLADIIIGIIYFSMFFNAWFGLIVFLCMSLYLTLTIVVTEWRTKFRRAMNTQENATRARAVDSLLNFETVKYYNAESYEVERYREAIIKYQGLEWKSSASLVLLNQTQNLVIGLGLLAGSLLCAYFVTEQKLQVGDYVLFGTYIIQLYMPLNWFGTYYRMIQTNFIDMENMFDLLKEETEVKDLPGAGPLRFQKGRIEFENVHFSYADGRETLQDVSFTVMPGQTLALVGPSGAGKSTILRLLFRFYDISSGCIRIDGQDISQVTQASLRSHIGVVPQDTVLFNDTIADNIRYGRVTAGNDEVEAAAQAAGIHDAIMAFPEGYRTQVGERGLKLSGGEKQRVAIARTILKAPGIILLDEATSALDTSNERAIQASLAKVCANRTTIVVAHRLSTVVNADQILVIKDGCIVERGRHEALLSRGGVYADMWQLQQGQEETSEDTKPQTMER

[2] = target: Potassium voltage-gated channel subfamily KQT member 2 (Rattus norvegicus, UniProt O88943, W236L); experiment: potentiation of rat KCNQ2 current – cell-based, automated electrophysiology, mechanism study for KCNQ2 potentiator project, dose response (AID 2603); assay type: functional
Chain of Potassium voltage-gated channel subfamily KQT member 2 (O88943 whole entry W236L): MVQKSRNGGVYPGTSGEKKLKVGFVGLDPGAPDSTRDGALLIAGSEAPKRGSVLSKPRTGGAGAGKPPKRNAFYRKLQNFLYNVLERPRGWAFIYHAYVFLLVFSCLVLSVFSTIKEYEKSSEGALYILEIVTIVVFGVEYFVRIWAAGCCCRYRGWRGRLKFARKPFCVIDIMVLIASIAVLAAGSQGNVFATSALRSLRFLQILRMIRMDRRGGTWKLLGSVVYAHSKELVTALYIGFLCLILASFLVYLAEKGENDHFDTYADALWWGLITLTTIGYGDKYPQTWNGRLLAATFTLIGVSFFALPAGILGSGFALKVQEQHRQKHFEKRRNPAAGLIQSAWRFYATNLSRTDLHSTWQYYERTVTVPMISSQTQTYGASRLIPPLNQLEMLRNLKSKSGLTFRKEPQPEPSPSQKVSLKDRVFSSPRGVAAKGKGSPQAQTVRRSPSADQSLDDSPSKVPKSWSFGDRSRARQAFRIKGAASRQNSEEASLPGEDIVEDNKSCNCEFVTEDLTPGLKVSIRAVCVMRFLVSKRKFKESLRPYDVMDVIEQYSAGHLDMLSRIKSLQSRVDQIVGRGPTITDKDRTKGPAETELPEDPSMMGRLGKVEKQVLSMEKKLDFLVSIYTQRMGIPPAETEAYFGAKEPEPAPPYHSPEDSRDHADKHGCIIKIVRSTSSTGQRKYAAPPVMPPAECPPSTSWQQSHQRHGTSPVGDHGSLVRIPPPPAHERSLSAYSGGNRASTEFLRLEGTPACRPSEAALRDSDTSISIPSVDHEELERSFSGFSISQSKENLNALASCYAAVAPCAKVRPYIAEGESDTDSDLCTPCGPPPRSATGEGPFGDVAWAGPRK

Protein RecA = target: T1, Protein RecA (Mycobacterium tuberculosis, UniProt P9WHJ3); experiment: Fluorescence Cell-Free Homogeneous Dose Retest to Identify Inhibitors of RecA-Intein Splicing Activity. [Related pubchem assays (depositor defined):AID2097, AID2223, AID489010, AID492950]; assay type: functional
T1 sequence (P9WHJ3 whole entry): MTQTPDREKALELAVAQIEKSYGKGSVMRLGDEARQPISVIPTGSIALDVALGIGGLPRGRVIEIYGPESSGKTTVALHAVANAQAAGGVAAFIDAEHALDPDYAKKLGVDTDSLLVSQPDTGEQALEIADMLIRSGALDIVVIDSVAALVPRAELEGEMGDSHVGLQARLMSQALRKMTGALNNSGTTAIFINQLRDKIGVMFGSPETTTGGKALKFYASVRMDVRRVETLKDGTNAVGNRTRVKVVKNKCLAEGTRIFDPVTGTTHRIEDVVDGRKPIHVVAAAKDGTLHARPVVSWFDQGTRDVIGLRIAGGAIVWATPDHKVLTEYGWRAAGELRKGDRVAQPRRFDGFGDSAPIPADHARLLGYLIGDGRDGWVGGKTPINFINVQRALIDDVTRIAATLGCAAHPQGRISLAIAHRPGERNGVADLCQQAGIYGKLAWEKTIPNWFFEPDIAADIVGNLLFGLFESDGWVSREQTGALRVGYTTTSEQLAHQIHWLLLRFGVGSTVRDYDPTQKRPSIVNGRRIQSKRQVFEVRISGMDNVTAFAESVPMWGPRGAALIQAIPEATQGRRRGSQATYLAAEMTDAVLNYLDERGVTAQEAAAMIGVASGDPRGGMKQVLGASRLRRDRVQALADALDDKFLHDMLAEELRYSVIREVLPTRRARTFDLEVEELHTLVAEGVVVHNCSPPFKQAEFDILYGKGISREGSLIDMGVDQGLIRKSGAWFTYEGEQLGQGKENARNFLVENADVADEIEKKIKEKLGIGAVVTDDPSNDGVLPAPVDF

[3] = non-specific 3'UTR reporter inhibition in Clone20-Shn3RL – cell-based, Renilla luciferase, cherry-picked, counter-screen for Shn3 inhibitor project, dose response (AID 624133); assay type: functional
[4] = target: T2, Replicative DNA helicase DnaB (Mycobacterium tuberculosis, UniProt P9WMR3); experiment: DnaB intein splicing inhibitors, dose response, biochemical, cell-free fluorescence (AID 449749); assay type: functional
T2 sequence (P9WMR3 whole entry): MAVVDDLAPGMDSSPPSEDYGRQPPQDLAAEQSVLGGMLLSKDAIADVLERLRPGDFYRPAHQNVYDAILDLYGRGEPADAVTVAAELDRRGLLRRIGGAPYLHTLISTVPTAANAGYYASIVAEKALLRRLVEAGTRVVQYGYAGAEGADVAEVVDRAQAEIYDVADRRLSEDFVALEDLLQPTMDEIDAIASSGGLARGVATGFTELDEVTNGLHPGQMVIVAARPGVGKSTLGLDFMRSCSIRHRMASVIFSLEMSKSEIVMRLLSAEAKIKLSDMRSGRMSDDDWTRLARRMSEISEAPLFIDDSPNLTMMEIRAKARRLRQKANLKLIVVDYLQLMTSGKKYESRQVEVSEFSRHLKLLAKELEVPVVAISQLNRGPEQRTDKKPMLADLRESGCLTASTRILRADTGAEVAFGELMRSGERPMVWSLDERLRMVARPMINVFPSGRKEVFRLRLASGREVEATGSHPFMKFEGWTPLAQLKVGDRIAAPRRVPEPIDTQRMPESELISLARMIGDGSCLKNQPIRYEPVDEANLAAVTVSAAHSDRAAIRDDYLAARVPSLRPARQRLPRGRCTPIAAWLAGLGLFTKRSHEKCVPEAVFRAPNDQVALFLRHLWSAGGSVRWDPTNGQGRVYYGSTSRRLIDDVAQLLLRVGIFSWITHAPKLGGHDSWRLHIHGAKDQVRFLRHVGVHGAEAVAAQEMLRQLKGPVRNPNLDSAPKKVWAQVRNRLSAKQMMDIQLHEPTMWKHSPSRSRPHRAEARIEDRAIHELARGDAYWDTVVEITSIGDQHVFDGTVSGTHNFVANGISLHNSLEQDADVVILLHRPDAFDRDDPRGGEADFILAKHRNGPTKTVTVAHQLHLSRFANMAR

[5] = reduction of Shn3 3'UTR-driven luciferase in osteoblasts – cell-based, Clone20 osteoblasts, firefly luciferase, cherry-picked, dose response (AID 624132); assay type: functional;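 note: firefly luciferase luminescence from reporter carrying the Shn3 3'UTR in osteoblasts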
Vero = experiment: viability of Vero cells under compound – cytotoxicity control for flavivirus capping enzyme inhibitors (AID 588742); assay type: functional; conditions: Chlorocebus sabaeus
[6] = target: T3, High affinity choline transporter 1 (Homo sapiens, UniProt Q9GZV3); experiment: human choline transporter blockers, potency – cell-based, 5-point CRC, membrane potential dye, dose response (AID 504840); assay type: functional
T3 sequence (Q9GZV3 whole entry): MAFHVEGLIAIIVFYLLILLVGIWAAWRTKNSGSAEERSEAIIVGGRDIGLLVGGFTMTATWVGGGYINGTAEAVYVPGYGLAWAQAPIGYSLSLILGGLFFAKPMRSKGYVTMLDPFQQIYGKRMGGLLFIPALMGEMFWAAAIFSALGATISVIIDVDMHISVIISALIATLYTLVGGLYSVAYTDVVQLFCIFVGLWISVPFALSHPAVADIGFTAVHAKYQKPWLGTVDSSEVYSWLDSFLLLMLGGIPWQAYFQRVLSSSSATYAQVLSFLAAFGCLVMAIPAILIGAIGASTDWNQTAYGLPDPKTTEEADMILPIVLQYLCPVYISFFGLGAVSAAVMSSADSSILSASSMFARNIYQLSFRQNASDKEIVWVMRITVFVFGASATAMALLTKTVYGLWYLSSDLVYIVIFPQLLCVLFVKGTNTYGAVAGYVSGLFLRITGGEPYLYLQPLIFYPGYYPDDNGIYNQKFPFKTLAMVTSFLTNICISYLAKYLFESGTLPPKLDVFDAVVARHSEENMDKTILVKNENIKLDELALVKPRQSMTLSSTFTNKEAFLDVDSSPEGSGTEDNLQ

[7] = target: 5-hydroxytryptamine receptor 1E (Homo sapiens, UniProt P28566); experiment: Counterscreen assay for S1P3 antagonists: Dose response cell-based high throughput screening assay to identify antagonists of the 5-Hydroxytryptamine Receptor Subtype 1E (5HT1E). [Related pubchem assays: 1429, 485 ]; assay type: functional
Chain of 5-hydroxytryptamine receptor 1E (P28566 whole entry): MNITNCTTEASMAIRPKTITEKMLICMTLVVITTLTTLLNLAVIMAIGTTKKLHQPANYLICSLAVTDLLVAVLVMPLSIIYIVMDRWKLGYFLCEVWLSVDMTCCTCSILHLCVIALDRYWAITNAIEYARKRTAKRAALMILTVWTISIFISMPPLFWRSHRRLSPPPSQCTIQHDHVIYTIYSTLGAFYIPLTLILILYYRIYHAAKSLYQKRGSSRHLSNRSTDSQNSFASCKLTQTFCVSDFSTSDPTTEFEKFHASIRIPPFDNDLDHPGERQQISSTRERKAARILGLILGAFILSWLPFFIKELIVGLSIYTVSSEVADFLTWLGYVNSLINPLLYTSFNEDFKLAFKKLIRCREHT

[8] = target: Sphingosine 1-phosphate receptor 3 (Homo sapiens, UniProt Q99500); experiment: Dose response cell-based high throughput screening assay for antagonists of the Sphingosine 1-Phosphate Receptor 3 (S1P3). [Related pubchem assays: 1429, 485 ]; assay type: functional
Chain of Sphingosine 1-phosphate receptor 3 (Q99500 whole entry): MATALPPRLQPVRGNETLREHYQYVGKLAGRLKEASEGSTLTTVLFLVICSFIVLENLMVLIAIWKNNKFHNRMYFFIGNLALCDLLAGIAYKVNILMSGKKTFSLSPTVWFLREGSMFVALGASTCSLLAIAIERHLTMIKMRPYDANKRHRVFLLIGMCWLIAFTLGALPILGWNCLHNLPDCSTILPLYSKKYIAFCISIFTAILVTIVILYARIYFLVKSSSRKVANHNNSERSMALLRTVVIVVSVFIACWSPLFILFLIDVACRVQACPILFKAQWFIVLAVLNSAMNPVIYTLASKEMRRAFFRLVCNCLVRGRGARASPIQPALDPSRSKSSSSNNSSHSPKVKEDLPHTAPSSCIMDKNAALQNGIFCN

[9] = DRD fibroblast viability loss – cell-based, non-viral oncogenic, luminescence, dose response (AID 1934); assay type: functional; conditions: Homo sapiens
[10] = viability of PTEN-deleted HCT116 cells – cell-based, HCT116 PTEN knockout, dose response (AID 1047); assay type: functional;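 note: HCT116 colon tumor cells with PTEN knocked out; cells exposed to compound for 60 hours before readout; potency for loss of cell viability measured by luminescence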
INS1 = experiment: INS-1E survival protection against cytokine death – cell-based, luminescence, retest, dose response (AID 449756); assay type: functional; conditions: Rattus norvegicus;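 note: cell death triggered by IL-1 beta plus TNF-alpha plus IFN-gamma mixture; protective hits raise ATP signal compared with cytokine alone wells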
BJ [11] = experiment: growth inhibition of engineered Ras-driven BJ cells – cell-based, alamar blue fluorescence, cherrypicked samples, dose response (AID 2631); assay type: functional; conditions: Homo sapiens;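 note: confirmatory dose-response assay in RAS-dependent BJ fibroblasts engineered with TERT, LT and ST, with cytotoxicity read by fluorescence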
BJ [12] = experiment: BJ-TERT-LT-ST fibroblast viability loss – cell-based, RAS-independent, luminescence, dose response (AID 1935); assay type: functional; conditions: Homo sapiens;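 note: BJ fibroblasts immortalized with TERT plus LT and ST oncogenes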
[13] = target: Mothers against decapentaplegic homolog 3 (Homo sapiens, UniProt P84022); experiment: inhibitors of SMAD-driven TGF-beta signaling – dose response (AID 715); assay type: functional
Chain of Mothers against decapentaplegic homolog 3 (P84022 whole entry): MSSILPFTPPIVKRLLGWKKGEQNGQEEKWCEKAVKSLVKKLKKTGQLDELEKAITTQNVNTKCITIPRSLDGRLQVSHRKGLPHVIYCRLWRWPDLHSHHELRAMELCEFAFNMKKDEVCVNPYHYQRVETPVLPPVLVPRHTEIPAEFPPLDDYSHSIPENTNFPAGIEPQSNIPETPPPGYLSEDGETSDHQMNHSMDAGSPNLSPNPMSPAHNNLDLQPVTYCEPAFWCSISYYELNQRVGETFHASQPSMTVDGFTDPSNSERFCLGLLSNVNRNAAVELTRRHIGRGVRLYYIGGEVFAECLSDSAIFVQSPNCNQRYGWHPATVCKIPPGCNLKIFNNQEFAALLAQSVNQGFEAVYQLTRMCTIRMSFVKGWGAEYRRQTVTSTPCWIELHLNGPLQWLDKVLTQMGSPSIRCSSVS

[14] = target: T4, Apoptotic protease-activating factor 1 (Homo sapiens, UniProt O14727); assay type: functional
T4 sequence (O14727 whole entry): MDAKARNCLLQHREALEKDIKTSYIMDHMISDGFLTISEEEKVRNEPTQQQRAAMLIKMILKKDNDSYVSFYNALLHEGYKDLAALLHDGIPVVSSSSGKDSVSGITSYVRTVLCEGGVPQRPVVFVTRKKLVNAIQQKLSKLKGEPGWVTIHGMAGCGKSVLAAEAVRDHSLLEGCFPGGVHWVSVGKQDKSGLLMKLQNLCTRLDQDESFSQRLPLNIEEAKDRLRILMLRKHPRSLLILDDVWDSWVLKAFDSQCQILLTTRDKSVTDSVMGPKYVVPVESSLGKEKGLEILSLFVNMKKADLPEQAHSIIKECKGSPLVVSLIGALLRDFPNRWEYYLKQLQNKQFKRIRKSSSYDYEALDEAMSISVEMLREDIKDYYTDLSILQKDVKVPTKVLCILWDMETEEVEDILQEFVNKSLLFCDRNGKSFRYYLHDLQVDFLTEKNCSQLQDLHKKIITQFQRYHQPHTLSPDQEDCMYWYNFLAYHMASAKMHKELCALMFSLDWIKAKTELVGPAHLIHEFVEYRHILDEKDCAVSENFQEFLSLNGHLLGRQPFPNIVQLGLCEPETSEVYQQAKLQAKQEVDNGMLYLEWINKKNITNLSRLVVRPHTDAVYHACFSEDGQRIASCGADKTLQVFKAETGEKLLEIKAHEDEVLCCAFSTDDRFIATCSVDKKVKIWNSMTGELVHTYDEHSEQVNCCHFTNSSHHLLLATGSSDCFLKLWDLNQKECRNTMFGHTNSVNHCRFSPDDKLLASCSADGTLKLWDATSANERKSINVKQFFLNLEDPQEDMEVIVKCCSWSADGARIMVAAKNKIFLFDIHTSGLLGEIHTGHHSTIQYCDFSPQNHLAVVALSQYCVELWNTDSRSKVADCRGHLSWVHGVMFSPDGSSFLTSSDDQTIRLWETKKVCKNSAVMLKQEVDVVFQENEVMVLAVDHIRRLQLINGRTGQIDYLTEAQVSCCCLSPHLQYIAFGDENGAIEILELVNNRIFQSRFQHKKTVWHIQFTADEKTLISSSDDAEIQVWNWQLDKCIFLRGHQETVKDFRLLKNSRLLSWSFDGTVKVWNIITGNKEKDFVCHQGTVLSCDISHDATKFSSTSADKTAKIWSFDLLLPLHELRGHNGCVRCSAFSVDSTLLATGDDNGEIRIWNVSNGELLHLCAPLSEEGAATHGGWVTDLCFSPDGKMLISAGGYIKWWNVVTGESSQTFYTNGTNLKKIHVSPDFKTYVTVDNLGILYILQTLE

[15] = viability of HCT116 lacking mutant beta-catenin – cell-based, human colon tumor, dose response (AID 1045); assay type: functional;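 note: HCT116 colon tumor cells with beta catenin knocked out; cells exposed to compound for 60 hours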
BJ [16] = experiment: BJ-TERT fibroblast viability loss – cell-based, RAS-independent, luminescence, dose response (AID 1933); assay type: functional; conditions: Homo sapiens
BJ [17] = experiment: cells; assay type: functional, cell-based; conditions: Homo sapiens
[18] = target: T5, Heat shock factor protein 1 (Mus musculus, UniProt P38532); experiment: decrease of HSF1-responsive luciferase luminescence – cell-based, NIH3T3, dose retest, confirmation (AID 2382); assay type: functional;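 note: NIH3T3 fibroblasts with HSF1-driven luciferase reporter stressed by proteasome inhibitor MG132; luminescence from HSF1-driven luciferase expression after 8 hours of MG132 stress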
T5 sequence (P38532 whole entry): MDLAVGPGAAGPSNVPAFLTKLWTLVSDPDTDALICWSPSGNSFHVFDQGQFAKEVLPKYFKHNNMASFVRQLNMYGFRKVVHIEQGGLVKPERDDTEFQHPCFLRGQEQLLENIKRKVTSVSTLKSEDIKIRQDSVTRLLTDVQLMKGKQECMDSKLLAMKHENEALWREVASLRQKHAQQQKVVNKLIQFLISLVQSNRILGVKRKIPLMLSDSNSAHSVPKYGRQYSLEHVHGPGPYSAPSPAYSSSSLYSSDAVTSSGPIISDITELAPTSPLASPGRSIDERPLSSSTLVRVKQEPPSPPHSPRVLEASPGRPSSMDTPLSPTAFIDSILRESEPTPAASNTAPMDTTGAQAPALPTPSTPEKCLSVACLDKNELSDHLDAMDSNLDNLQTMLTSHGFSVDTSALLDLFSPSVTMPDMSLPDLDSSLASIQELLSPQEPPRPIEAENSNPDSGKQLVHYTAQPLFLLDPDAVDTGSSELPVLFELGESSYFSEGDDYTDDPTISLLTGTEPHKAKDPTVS

Chain of Genome polyprotein (P29990 2492-3391 limits assumed): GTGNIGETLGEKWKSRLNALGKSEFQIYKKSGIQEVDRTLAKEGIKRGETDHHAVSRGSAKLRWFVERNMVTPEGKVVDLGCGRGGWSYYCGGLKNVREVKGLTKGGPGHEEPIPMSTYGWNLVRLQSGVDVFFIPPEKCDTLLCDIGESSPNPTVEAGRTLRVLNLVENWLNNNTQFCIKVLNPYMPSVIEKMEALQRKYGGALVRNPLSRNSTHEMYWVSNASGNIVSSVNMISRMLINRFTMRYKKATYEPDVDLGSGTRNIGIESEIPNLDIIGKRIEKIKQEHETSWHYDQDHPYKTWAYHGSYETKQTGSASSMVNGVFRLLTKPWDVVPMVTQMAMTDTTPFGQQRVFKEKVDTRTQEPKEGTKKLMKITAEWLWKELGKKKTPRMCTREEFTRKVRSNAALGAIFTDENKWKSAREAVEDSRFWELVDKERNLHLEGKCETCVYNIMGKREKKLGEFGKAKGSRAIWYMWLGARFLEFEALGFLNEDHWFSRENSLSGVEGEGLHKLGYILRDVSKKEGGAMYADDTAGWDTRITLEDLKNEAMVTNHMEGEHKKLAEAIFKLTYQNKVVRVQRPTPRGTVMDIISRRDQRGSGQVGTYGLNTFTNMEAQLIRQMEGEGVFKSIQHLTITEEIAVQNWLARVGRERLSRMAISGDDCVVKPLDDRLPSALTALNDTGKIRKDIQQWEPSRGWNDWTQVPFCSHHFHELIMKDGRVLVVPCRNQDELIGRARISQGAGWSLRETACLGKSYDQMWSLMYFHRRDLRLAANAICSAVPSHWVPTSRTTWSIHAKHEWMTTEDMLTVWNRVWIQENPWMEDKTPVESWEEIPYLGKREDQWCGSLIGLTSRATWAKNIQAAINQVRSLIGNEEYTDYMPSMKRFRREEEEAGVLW

CC(C)c1nnc(NC(=O)c2nc(S(=O)(=O)Cc3ccccc3)ncc2Cl)s1
active: IC50 (Genome polyprotein) > 100 µM | EC50 [1] 36.8 µM | EC50 [2] 6.2 µM | EC50 (Protein RecA) 8.12 µM | AC50 [3] 6.32 µM | AC50 [4] 48 µM | AC50 [5] 0.876 µM | CC50 (Vero) 25.9 µM | IC50 [6] 4.47 µM

Cc1cc(C(=O)OC(C(=O)Nc2ccc(C)c(Cl)c2)c2ccccc2)c(C)o1 (configuration not stated)
13.4 µM (not active): IC50 [7]
11.8 µM (not active): IC50 [8]

O=C1C(=O)c2ccc(-c3ccccc3)cc2-c2ccccc21
active: EC50 [9] 2.21 µM | EC50 [10] 1.16 µM | AC50 (INS1) 1.04 µM | EC50 (BJ [11]) 1.6 µM | IC50 [13] 2 µM | IC50 [14] 0.316 µM | EC50 [15] 1.21 µM | EC50 (BJ [16]) 1.02 µM | EC50 [18] 1.75 µM
inconclusive: EC50 (BJ [12]) 1.23 µM | EC50 (BJ [17]) 2.75 µM

Reference: ChEMBL document CHEMBL1201862, “PubChem BioAssay data set” (2004)
